Consider nine molecules from PubChem BioAssay (NCI).

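Five concentrations, 48 hours, 96-well plates. GI50 is the concentration that inhibits growth by half. At the TGI there is no net growth.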

The first assay has as its system SK-MEL-28 melanoma. In words: NCI-60 cell line screen, 48 h.
For `CCN1CCN(c2nc(C)cc(N(CCNc3ccnc4cc(Cl)ccc34)Cc3ccc4c(c3)OCO4)n2)CC1`, the GI50 was 1.79 µM and the TGI stood at 3.42 µM.

As for `COc1ccc([C@H]2[C@@H](F)C(=O)N2c2cc(OC)c(OC)c(OC)c2)cc1F`, the GI50 is 15.8 µM and the TGI is greater than 100 µM.

Turning to `Cc1cc(I)cc(CN(C)CCCN2CCCCC2)c1O`, the GI50 is 15.9 µM and the TGI amounted to 31.7 µM.

Take `CN(C(=O)c1ccc(C(F)(F)F)cc1)c1ccc(Oc2ccc3c(c2)cc(C(=O)N2CCN(Cc4ccc(OC(F)F)cc4)CC2)n3C)nc1`: the GI50 was 63.2 µM and the TGI is greater than 100 µM.

As for `O=C(/C=C/c1ccncc1)c1cc(Cl)ccc1O`, the GI50 is 22.6 µM and the TGI turned out to be 47.5 µM.

Turning to `OCCCCCNCc1cc2cc3c(cc2c2cc(OCc4ccccc4)ccc12)OCO3`, the GI50 is 1.82 µM and the TGI was 3.23 µM.

For `COc1cc(/C=C2\CN(S(=O)(=O)c3ccccc3)C/C(=C\c3cc(CN4CCCC4)c(O)c(OC)c3)C2=O)cc(CN2CCCC2)c1O`, the GI50 is 1.88 µM and the TGI turned out to be 3.56 µM.

For the molecule `COc1cc2c3c(n(C)c(=O)c2cc1OC)-c1cc2c(cc1/C3=C\CCN)OCO2`, the GI50 was 8.76 µM and the TGI is 33.5 µM.

The test system of another assay is COLO 205 colon. In words: NCI-60 cell line screen, 48 h.
`CCN1CCN(c2nc(C)cc(N(CCNc3ccnc4cc(Cl)ccc34)Cc3ccc4c(c3)OCO4)n2)CC1`: the GI50 is 1.63 µM and the TGI was 3.27 µM.

Take `COc1ccc([C@H]2[C@@H](F)C(=O)N2c2cc(OC)c(OC)c(OC)c2)cc1F`: the GI50 was 0.156 µM and the TGI is 0.503 µM.

Turning to `Cc1cc(I)cc(CN(C)CCCN2CCCCC2)c1O`, the GI50 was 13.7 µM and the TGI amounted to 27.3 µM.

For `CN(C(=O)c1ccc(C(F)(F)F)cc1)c1ccc(Oc2ccc3c(c2)cc(C(=O)N2CCN(Cc4ccc(OC(F)F)cc4)CC2)n3C)nc1`, the GI50 is 60 µM and the TGI was greater than 100 µM.

`O=C(/C=C/c1ccncc1)c1cc(Cl)ccc1O`: the GI50 is 16.8 µM and the TGI is 32.3 µM.

Take `Cc1cc(-c2ccc3nc(C4CCOCC4)n(CCOC(F)(F)F)c3c2)cn(C)c1=O`: the TGI was 2.97 µM.

For `COc1cc2c3c(n(C)c(=O)c2cc1OC)-c1cc2c(cc1/C3=C\CCN)OCO2`, the GI50 is 0.975 µM and the TGI was greater than 100 µM.

A further assay relates to MOLT-4 leukemia. Kind of assay: NCI-60 cell line screen, 48 h.
Take `CCN1CCN(c2nc(C)cc(N(CCNc3ccnc4cc(Cl)ccc34)Cc3ccc4c(c3)OCO4)n2)CC1`: the GI50 is 2100 nM and the TGI is 6.2 µM.

For `COc1ccc([C@H]2[C@@H](F)C(=O)N2c2cc(OC)c(OC)c(OC)c2)cc1F`, the GI50 is 146 nM and the TGI came out at 93.4 µM.

In the case of `Cc1cc(I)cc(CN(C)CCCN2CCCCC2)c1O`, the GI50 is 3200 nM and the TGI came to 13.4 µM.

For the molecule `CN(C(=O)c1ccc(C(F)(F)F)cc1)c1ccc(Oc2ccc3c(c2)cc(C(=O)N2CCN(Cc4ccc(OC(F)F)cc4)CC2)n3C)nc1`, the GI50 is 881 nM and the TGI is greater than 100 µM.

For the molecule `Cc1cc(-c2ccc3nc(C4CCOCC4)n(CCOC(F)(F)F)c3c2)cn(C)c1=O`, the GI50 was 588 nM and the TGI was determined as 17.5 µM.

For `OCCCCCNCc1cc2cc3c(cc2c2cc(OCc4ccccc4)ccc12)OCO3`, the GI50 is 1410 nM and the TGI was determined as 4.55 µM.

Regarding `COc1cc2c3c(n(C)c(=O)c2cc1OC)-c1cc2c(cc1/C3=C\CCN)OCO2`, the GI50 was less than 10 nM.

For another assay, the system named is UACC-62 melanoma. In words: NCI-60 cell line screen, 48 h.
`CCN1CCN(c2nc(C)cc(N(CCNc3ccnc4cc(Cl)ccc34)Cc3ccc4c(c3)OCO4)n2)CC1`: the GI50 was 1850 nM and the TGI is 3.38 µM.

For `Cc1cc(I)cc(CN(C)CCCN2CCCCC2)c1O`, the GI50 is 14200 nM and the TGI came out at 41.6 µM.

With `CN(C(=O)c1ccc(C(F)(F)F)cc1)c1ccc(Oc2ccc3c(c2)cc(C(=O)N2CCN(Cc4ccc(OC(F)F)cc4)CC2)n3C)nc1`, the GI50 is 3960 nM and the TGI is greater than 100 µM.

Consider `O=C(/C=C/c1ccncc1)c1cc(Cl)ccc1O`, for which the GI50 was 15900 nM and the TGI is 37.3 µM.

Molecule `Cc1cc(-c2ccc3nc(C4CCOCC4)n(CCOC(F)(F)F)c3c2)cn(C)c1=O` gave a TGI of 2.06 µM.

Regarding `OCCCCCNCc1cc2cc3c(cc2c2cc(OCc4ccccc4)ccc12)OCO3`, the GI50 is 1710 nM and the TGI turned out to be 3.08 µM.

Regarding `COc1cc(/C=C2\CN(S(=O)(=O)c3ccccc3)C/C(=C\c3cc(CN4CCCC4)c(O)c(OC)c3)C2=O)cc(CN2CCCC2)c1O`, the GI50 was 1610 nM and the TGI is 3.24 µM.

On to `COc1cc2c3c(n(C)c(=O)c2cc1OC)-c1cc2c(cc1/C3=C\CCN)OCO2`, for which the GI50 is 185 nM and the TGI worked out at 4.41 µM.

In another assay the test system is NCI-H460 lung. Kind of assay: NCI-60 cell line screen, 48 h.
For the molecule `CCN1CCN(c2nc(C)cc(N(CCNc3ccnc4cc(Cl)ccc34)Cc3ccc4c(c3)OCO4)n2)CC1`, the GI50 is 1940 nM and the TGI amounted to 4.7 µM.

For the molecule `COc1ccc([C@H]2[C@@H](F)C(=O)N2c2cc(OC)c(OC)c(OC)c2)cc1F`, the GI50 is 356 nM and the TGI amounted to 91.1 µM.

For `Cc1cc(I)cc(CN(C)CCCN2CCCCC2)c1O`, the GI50 was 12500 nM and the TGI turned out to be 26.2 µM.

For the molecule `CN(C(=O)c1ccc(C(F)(F)F)cc1)c1ccc(Oc2ccc3c(c2)cc(C(=O)N2CCN(Cc4ccc(OC(F)F)cc4)CC2)n3C)nc1`, the GI50 was 3250 nM and the TGI is greater than 100 µM.

As to `O=C(/C=C/c1ccncc1)c1cc(Cl)ccc1O`, the GI50 was 15500 nM and the TGI amounted to 34.7 µM.

Take `Cc1cc(-c2ccc3nc(C4CCOCC4)n(CCOC(F)(F)F)c3c2)cn(C)c1=O`: the GI50 was 1060 nM.

Consider `COc1cc2c3c(n(C)c(=O)c2cc1OC)-c1cc2c(cc1/C3=C\CCN)OCO2`, for which the GI50 was 14.7 nM and the TGI was 1.81 µM.

The subject of the next assay is A549 NSCLC. In words: NCI-60 cell line screen, 48 h.
Turning to `CCN1CCN(c2nc(C)cc(N(CCNc3ccnc4cc(Cl)ccc34)Cc3ccc4c(c3)OCO4)n2)CC1`, the GI50 is 2400 nM and the TGI worked out at 8.19 µM.

As for `COc1ccc([C@H]2[C@@H](F)C(=O)N2c2cc(OC)c(OC)c(OC)c2)cc1F`, the GI50 is 394 nM and the TGI is greater than 100 µM.

Regarding `Cc1cc(I)cc(CN(C)CCCN2CCCCC2)c1O`, the GI50 is 16800 nM and the TGI came to 35.7 µM.

As to `CN(C(=O)c1ccc(C(F)(F)F)cc1)c1ccc(Oc2ccc3c(c2)cc(C(=O)N2CCN(Cc4ccc(OC(F)F)cc4)CC2)n3C)nc1`, the GI50 is 3230 nM and the TGI was greater than 100 µM.

Regarding `O=C(/C=C/c1ccncc1)c1cc(Cl)ccc1O`, the GI50 was 23000 nM and the TGI came out at 53.2 µM.

In the case of `Cc1cc(-c2ccc3nc(C4CCOCC4)n(CCOC(F)(F)F)c3c2)cn(C)c1=O`, the GI50 is 480 nM.

Consider `OCCCCCNCc1cc2cc3c(cc2c2cc(OCc4ccccc4)ccc12)OCO3`, for which the GI50 was 1550 nM and the TGI turned out to be 2.89 µM.

Turning to `COc1cc(/C=C2\CN(S(=O)(=O)c3ccccc3)C/C(=C\c3cc(CN4CCCC4)c(O)c(OC)c3)C2=O)cc(CN2CCCC2)c1O`, the GI50 was 3610 nM and the TGI was greater than 100 µM.

For `COc1cc2c3c(n(C)c(=O)c2cc1OC)-c1cc2c(cc1/C3=C\CCN)OCO2`, the GI50 is 165 nM and the TGI stood at 4.44 µM.

Another assay relates to NCI-H23 lung. Kind of assay: NCI-60 cell line screen, 48 h.
With `CCN1CCN(c2nc(C)cc(N(CCNc3ccnc4cc(Cl)ccc34)Cc3ccc4c(c3)OCO4)n2)CC1`, the GI50 was 3.44 µM and the TGI came out at 14.2 µM.

Turning to `COc1ccc([C@H]2[C@@H](F)C(=O)N2c2cc(OC)c(OC)c(OC)c2)cc1F`, the GI50 was 0.273 µM and the TGI was greater than 100 µM.

Take `Cc1cc(I)cc(CN(C)CCCN2CCCCC2)c1O`: the GI50 was 19 µM and the TGI stood at 56.5 µM.

Turning to `CN(C(=O)c1ccc(C(F)(F)F)cc1)c1ccc(Oc2ccc3c(c2)cc(C(=O)N2CCN(Cc4ccc(OC(F)F)cc4)CC2)n3C)nc1`, the GI50 was less than 0.01 µM and the TGI was greater than 100 µM.

Take `O=C(/C=C/c1ccncc1)c1cc(Cl)ccc1O`: the GI50 was 17.2 µM and the TGI amounted to 38.8 µM.

In the case of `Cc1cc(-c2ccc3nc(C4CCOCC4)n(CCOC(F)(F)F)c3c2)cn(C)c1=O`, the GI50 was 0.518 µM and the TGI was found to be 12.8 µM.

In a further assay the test system is ACHN renal. In words: NCI-60 cell line screen, 48 h.
Regarding `CCN1CCN(c2nc(C)cc(N(CCNc3ccnc4cc(Cl)ccc34)Cc3ccc4c(c3)OCO4)n2)CC1`, the GI50 is 2260 nM and the TGI was determined as 5.26 µM.

For the molecule `Cc1cc(I)cc(CN(C)CCCN2CCCCC2)c1O`, the GI50 was 17300 nM and the TGI came out at 37.3 µM.

Take `CN(C(=O)c1ccc(C(F)(F)F)cc1)c1ccc(Oc2ccc3c(c2)cc(C(=O)N2CCN(Cc4ccc(OC(F)F)cc4)CC2)n3C)nc1`: the GI50 is greater than 100000 nM and the TGI is greater than 100 µM.

In the case of `O=C(/C=C/c1ccncc1)c1cc(Cl)ccc1O`, the GI50 is 23900 nM and the TGI is 60 µM.

With `OCCCCCNCc1cc2cc3c(cc2c2cc(OCc4ccccc4)ccc12)OCO3`, the GI50 was 1580 nM and the TGI was found to be 2.93 µM.

For the molecule `COc1cc(/C=C2\CN(S(=O)(=O)c3ccccc3)C/C(=C\c3cc(CN4CCCC4)c(O)c(OC)c3)C2=O)cc(CN2CCCC2)c1O`, the GI50 is 1990 nM and the TGI came to 4.94 µM.

In the case of `COc1cc2c3c(n(C)c(=O)c2cc1OC)-c1cc2c(cc1/C3=C\CCN)OCO2`, the GI50 is 47.6 nM and the TGI came out at 0.585 µM.
